Results as given in US20250241894A1, “TREATMENT OF MENTAL DISORDERS” (GH RESEARCH IRELAND LIMITED, priority 2022, published 2025).

Legend:
human hepatocytes [1] = experiment: Metabolism identification study in human hepatocytes; details: for Relative Proportion of compounds identified: 5-MeO-DMT free base 10 μM, up to 120 minutes
Description: For incubations with cryopreserved hepatocytes, the 2 mM stock solution was diluted with Leibovitz L-15 medium to a concentration of 20 μM or 2 μM. An aliquot (250 μL) of the 20 μM and 2 μM test substance formulations was added to each hepatocyte incubation sample (250 μL), as appropriate, so that the final test substance concentration in the incubations was 10 μM or 1 μM, respectively, and incubations contained less than 1% (v/v) solvent.
Incubations were performed at ca. 37° C. in a shaking water bath (total incubation volume 0.5 mL). For 1 μM, incubations were terminated after 0, 5, 10, 20, 30, 60 and 120 minutes, by the addition of ice-cold acetonitrile (0.5 mL).
The samples were vortex mixed and centrifuged at ca 13,000 rpm for 10 minutes at room temperature. Following centrifugation, the protein-free supernatants were removed for analysis.
Blank control incubations were carried out with Leibovitz L-15 medium in place of the test substance. No cells control samples were performed with Leibovitz L-15 medium in place of hepatocytes. Aliquots of the blank control samples were taken at 120 minutes, while no cells control samples were taken at 0, 30 and 120 for 1 μM incubations and at 0 and 120 minutes for 10 μM incubations.
All 1 μM incubations were performed in duplicate, while all 10 μM incubations were performed in singlet. All samples were stored at −80° C. (nominal) prior to analysis.
Prior to sample analysis a 100 μL aliquot of each sample was evaporated to near dryness under a steady stream of nitrogen at room temperature, and subsequently reconstituted in 50 μL of mobile phase A (0.1% formic acid in water). Each sample (0, 30 and 120-minute, 10 μM) was analysed using accurate mass LC-MS to determine relative levels of parent compound at each time-point, and determine the profile of metabolites formed. Appropriate blank and control samples were also analysed. The 10 and 60-minute, 10 μM incubation samples were not analysed and were stored at −80° C. (nominal).
Data were interrogated for the presence of metabolites by comparison of retention times with the test substance reference standard and based on the accurate masses of potential metabolites using screening software (UNIFI version 1.9.4), and user defined search parameters. To confirm a suspected metabolite, the measured accurate mass of the peak detected in the sample used for structural elucidation had to be within 5 ppm of the theoretical mass in order to confirm the molecular formula.

human plasma protein = experiment: Binding of 5-MIAA to human plasma protein; assay type: in vitro ADME
Description: Binding to human plasma protein was determined. Reported are the unbound fraction (fu) for three replicates as well as the mean unbound fraction, the standard deviation and the mean % recovery (Table 8).

human hepatocytes [2] = experiment: Metabolic stability in Hμrel human hepatocyte co-culture assay
Water solubility = assay type: physicochemical
[3] = rat; cited from earlier work
[4] = Pharmacokinetics of 5-MeO-DMT and bufotenine after a single inhaled dose; assay type: in vivo, human; details: 15 minutes after administration of 5-MeO-DMT
Description: Blood samples were obtained at 1; 2; 4; 7; 10; 15; 20; 30; 45 min and 1; 1.5; 2; 3; 4 hours after administration.
PK parameters were generated by algebraic analysis of the concentration versus time plots for each individual. The analysis was carried out using the software Phoenix WinNonlin 6.3.

Compound: 5-Methoxyindole acetic acid [5-MIAA]
- Presence in subsequent assays (human hepatocytes [1]): predominant metabolite
- Plasma binding (mean fraction unbound) (human plasma protein): ~50%
- Time until removed from circulation for urinary excretion (human plasma protein; assuming glomerular filtration rate 90-120 ml/min): 1 to 2 h
- Remaining abundance (human hepatocytes [2]; after 72 h, hepatocytes, 1 and 10 μM): 75-82%
- Metabolic turnover (human hepatocytes [2]; hepatocytes): low metabolic turnover
- Disappearance with stromal cell controls (human hepatocytes [2]; stromal cells): no disappearance

Compound: COc1ccc2[nH]cc(CC[N+](C)(C)[O-])c2c1 [5-MeO-DMT-N-oxide]
- Relative Proportion of compounds identified (human hepatocytes [1]): 1%
- Water solubility (Water solubility): water soluble
- Excretion [3]: rapid excretion

Compound: COc1ccc2[nH]cc(CCO)c2c1 [5-methoxytryptophol, 5-Methoxyindole-3-ethanol]
- Relative Proportion of compounds identified (human hepatocytes [1]): 25%
- Presence in subsequent assays (human hepatocytes [1]): failed to detect
- Metabolic turnover (human hepatocytes [2]; hepatocytes): high metabolic turnover
- Time to complete disappearance (human hepatocytes [2]; hepatocytes): 24 h

Compound: CN(C)CCc1c[nH]c2ccc(O[C@@H]3O[C@H](C(=O)O)[C@@H](O)[C@H](O)[C@H]3O)cc12 [Bufotenine glucuronide]
- Detection in the hepatocyte assay (human hepatocytes [1]): not detected

Compound: CN(C)CCc1c[nH]c2ccc(O)cc12 [bufotenine, Bufotenine]
- Detection in human serum [4]: In no case is it detected
- Relative Proportion of compounds identified (human hepatocytes [1]): 5%
